We go through one substance from patent US20110065629A1, “ENTERAL NUTRIENT” (AMINO UP CHEMICAL CO., LTD., priority 2008, published 2011).

The test system of this experiment is Dendritic cells separated from the bone marrow and spleen. As to the kind of experiment: External appearance of dendritic cells in plastic dishes with or without LPS. The conditions noted are these: AHCC 5 mg/ml, β-glucan 1 mg/ml. Type of experiment: cell-based, normal mice. On the procedure:
Dendritic cells separated from the bone marrow and spleen of normal mice were placed in plastic dishes to measure the external appearances of dendritic cells in the case of adding only LPS so as to achieve a final concentration of 5 μg/ml and in the case of adding LPS and AHCC (final concentration: 5 mg/ml) or β-glucan (final concentration: 1 mg/ml).

On to β-glucan, for which the Cell morphology result is, setting by setting: (LPS stimulation (5 μg/ml)) “Deformation”; (Normal condition) “Spherical”.
